Source: ChEMBL document CHEMBL1148658, “New HIV-1 reverse transcriptase inhibitors based on a tricyclic benzothiophene scaffold: synthesis, resolution, and inhibitory activity” (Bioorg Med Chem Lett, 2006)

How the values were obtained:
Assay type in all cases: cell-based
[1] = target: Human immunodeficiency virus type 1 reverse transcriptase (Human immunodeficiency virus 1, UniProt Q72547); experiment: Inhibition of wild type HIV1 reverse transcriptase in 293T cells
[2] = target: Human immunodeficiency virus type 1 reverse transcriptase (Human immunodeficiency virus 1, UniProt Q72547, K103N); experiment: Inhibition of HIV1 reverse transcriptase K103N mutant in 293T cells
[3] = target: Human immunodeficiency virus type 1 reverse transcriptase (Human immunodeficiency virus 1, UniProt Q72547, Y181C); experiment: Inhibition of HIV1 reverse transcriptase Y181C mutant in 293T cells
[4] = target: Human immunodeficiency virus type 1 reverse transcriptase (Human immunodeficiency virus 1, UniProt Q72547, Y188C); experiment: Inhibition of HIV1 reverse transcriptase Y188C mutant in 293T cells

`COC[C@H]1CCCN1C1=C(C(=O)OC)[C@]2(C(=O)OC)Sc3ccccc3[C@H]12` was tested, and the IC50 [1] was 38 µM.

`COC(=O)C1=C(N2CCCCC2)[C@H]2c3ccccc3S[C@@]12C(=O)OC` gave an IC50 [1] of 7.7 µM.

In the case of `COC(=O)C1=C(N2CCC[C@@H]2C)[C@H]2c3ccccc3S[C@@]12C(=O)OC`, the IC50 [1] is reported as 2.3 µM.

`COC(=O)C1=C(N2CCC[C@@H]2C)[C@@H]2c3ccccc3S[C@]12C(=O)OC` gave an IC50 [1] greater than 25 µM.

With `COC[C@H]1CCCN1C1=C(C(=O)OC)C2(C(=O)OC)Sc3ccccc3C12` (some centres not stated) the IC50 [1] was 48 µM.

Work on `CCOC(=O)C1=C(N2CCCC2)C2c3ccccc3SC12C(=O)OCC` (configuration not stated) yielded an IC50 [1] greater than 20 µM.

Work on `COC(=O)C1=C(N2CCCCC2)[C@@H]2c3ccccc3S[C@]12C(=O)OC` yielded an IC50 [1] greater than 40 µM.

In the case of `COC(=O)C1=C(N2CCC2)C2c3ccccc3SC12C(=O)OC` (configuration not stated), the IC50 [1] is reported as greater than 10 µM.

With `CCOC(=O)C1=C(N2CCCC2)[C@H]2c3ccccc3S[C@@]12C(=O)OCC` the IC50 [1] was greater than 20 µM.

With `COC(=O)C1=C(N2CCCC2)C2c3ccccc3SC12C(=O)OC` (configuration not stated) the IC50 [1] was 1.2 µM, the IC50 [2] was greater than 30 µM and the IC50 [3] was greater than 30 µM. The IC50 [4] was greater than 30 µM.

Work on `COC(=O)C1=C(N2CCCCC2)C2c3ccccc3SC12C(=O)OC` (configuration not stated) yielded an IC50 [1] of 8.9 µM.

In the case of `COC(=O)C1=C(N2CCCC2)[C@H]2c3ccccc3S[C@@]12C(=O)OC`, the IC50 [1] is reported as 0.8 µM.

Molecule `COC(=O)C1=C(N2CCCC2)[C@@H]2c3ccccc3S[C@]12C(=O)OC` has an IC50 [1] greater than 20 µM.

For `CCOC(=O)C1=C(N2CCCC2)[C@@H]2c3ccccc3S[C@]12C(=O)OCC`, the IC50 [1] was greater than 20 µM.

`COC(=O)C1=C(N2CC=CC2)C2c3ccccc3SC12C(=O)OC` (configuration not stated) showed an IC50 [1] of 5.1 µM.

For `COC(=O)C1=C(N2CCC[C@H]2C)[C@@H]2c3ccccc3S[C@]12C(=O)OC`, the IC50 [1] was 11 µM.

`CC(C)(C)OC(=O)C1=C(N2CCCC2)C2c3ccccc3SC12C(=O)OC(C)(C)C` (configuration not stated) showed an IC50 [1] greater than 20 µM.

`COC[C@H]1CCCN1C1=C(C(=O)OC)[C@@]2(C(=O)OC)Sc3ccccc3[C@@H]12` gave an IC50 [1] greater than 50 µM.

`COC(=O)C1=C(N2CCC[C@H]2C)[C@H]2c3ccccc3S[C@@]12C(=O)OC` was tested, and the IC50 [1] was 0.5 µM.
